Laboratory results taken from publication PMC12775434, “Ultra-large virtual screening unveils potent agonists of the neuromodulatory orphan receptor GPR139” (Nature Communications, 2025).
Values after ≈ are worked out from the molar mass of the structure shown. Values joined by “and” are separate entries in the source; they are usually repeats but may differ in a detail not shown here. Equal entries are not always repeated.

What was measured:
GPR139 = biological target: T1, GPR139 (Homo sapiens, UniProt Q6DWJ6); assay: Ca2+ mobilization assay, HEK293A cells transiently expressing GPR139; format: cell-based; conditions: for Emax: HEK293-A, normalized to JNJ-63533054 (JNJ(S)); for Emax / EC50: HEK293A transient; for EC50: Supplementary Table 6, read-out: pEC50 Ca2+ (converted); for Ca2+ signal (% of JNJ-63533054): replicate experiments
T1 sequence (Q6DWJ6 1-353): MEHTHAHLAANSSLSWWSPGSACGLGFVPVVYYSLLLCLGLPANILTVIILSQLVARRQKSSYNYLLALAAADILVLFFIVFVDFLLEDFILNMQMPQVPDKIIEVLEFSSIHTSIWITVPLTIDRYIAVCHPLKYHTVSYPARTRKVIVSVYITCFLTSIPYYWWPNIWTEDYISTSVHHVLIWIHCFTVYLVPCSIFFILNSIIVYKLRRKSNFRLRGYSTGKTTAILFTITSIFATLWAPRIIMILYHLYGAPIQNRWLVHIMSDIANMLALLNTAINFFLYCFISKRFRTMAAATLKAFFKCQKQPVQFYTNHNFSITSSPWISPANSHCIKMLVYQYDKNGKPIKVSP
Description: Primary screening and pharmacological characterization of compounds were performed using a CHO-K1 cell line that stably expresses human GPR139 (GPR139-CHOk1). The GPR139-CHOk1 cell line was kindly provided by H. Lundbeck A/S, Denmark[24]. GPR139-CHOk1 cells were grown in Ham’s F-12 Kaighn’s Modification Medium (ThermoFisher #21127030) supplemented with 10% dialyzed fetal bovine serum (US origin, ThermoFisher #26400044), 100 units/mL Penicillin-Streptomycin (ThermoFisher #15140122), and 1 mg/mL Geneticin (ThermoFisher #11811031). […] M1R-CHOk1 cells were purchased from The Missouri S&T cDNA Resource Center (#CEM100TN00). M1R-CHOk1 cells were grown in Ham’s F12 Medium (ThermoFisher #21765029) supplemented with 10% fetal bovine serum (Brazilian origin, ThermoFisher #10270106), 100 units/mL Penicillin-Streptomycin, and 0.25 mg/mL Geneticin. HEK293A cells transiently transfected with GPR139 were used for additional pharmacological assessment of signaling pathways activated by GPR139. HEK239A cells were generously provided by Dr. Asuka Inoue, Tohoku University, Japan. HEK293A cells were grown in Dulbecco’s Modified Eagle Medium (ThermoFisher #31966047) supplemented with 10% dialyzed fetal bovine serum and 100 units/mL Penicillin-Streptomycin. Cell lines were maintained at 37 °C in humidified incubator equilibrated with 5% CO2.
30,000 GPR139- or M1R-CHOk1 cells/well were seeded in black clear bottom tissue culture treated 96-well plates (Greiner #655090) and grown for 20–24 h. Cells were washed with HEPES buffer (Hank’s Balanced Salt Solution (HBBS) supplemented with 20 mM HEPES, 1 mM MgCl2, and 1 mM CaCl2; pH 7.4). Cells were loaded with 50 µL of 2 µM Fluo-4 AM dye (ThermoFisher #F14202) in HEPES buffer supplemented with 2.5 mM probenecid and 0.01% Pluronic F-68 (ThermoFisher #24040032) for 1 h at 37 °C. Cells were washed with HEPES buffer. 50 µL HEPES buffer supplemented with 2.5 mM probenecid was added, and the cells were incubated for 10 min at 37 °C before measurement. 50 µL test compounds diluted in HEPES buffer from DMSO stocks (final DMSO concentration of maximally 0.3%) were added automatically after baseline measurements. The intracellular calcium mobilization was measured on a FlexStation 3 Multimode Microplate Reader (Molecular Devices) at 37 °C with filters for excitation of 485 nm and emission of 525 nm.
HEK293A cells were reverse-transfected with human GPR139 for Ca^2+ mobilization experiments with transiently expressed GPR139. The construct has been generated and described previously by Nøhr et al.. DNA and Lipofectamine 2000 Transfection Reagent (ThermoFisher #11668019) were separately diluted in Opti-MEM I Reduced Serum Medium (ThermoFisher #31985070). 10 ng GPR139 DNA and 250 nL Lipofectamine were used for each well. The dilutions were incubated at room temperature for 5 min. Then, DNA and Lipofectamine dilutions were combined in 1:1 volumetric ratio and incubated at room temperature for 20 min to obtain the transfection solutions. 10 µL transfection solution and 20,000 cells in 100 µL growth medium were distributed in each well of black clear bottom tissue culture treated 96-well plates that were previously coated with poly-D-lysine (Sigma-Aldrich #P0899). Cells were grown for approximately 48 h. A calcium mobilization assay was performed as described.
Pharmacological data and statistical analyses were performed in GraphPad Prism v9–10 (Graphpad Software Inc., San Diego, CA), which are also specifically described in the figure and table legends. The functional assay responses were normalized to buffer (0%) and Lundbeck Cmp 1a or JNJ-63533054 (100%), for Ca^2+ and IP1 experiments in the GPR139-CHOk1 stable cell line or Ca^2+, G protein activation, and arrestin-3 recruitment experiments in the HEK293A cells transiently transfected with GPR139, respectively. Data are from at least three independent experiments, unless stated otherwise. […]

Kinetic solubility = format: physicochemical; conditions: aqueous buffer, kinetic from dmso stock; 100 mM potassium phosphate buffer, 37 °C
Description: Test compound was added to 100 mM potassium phosphate buffer and incubated at 37 °C for at least 20 h in a heater-shaker. After incubation, the samples were centrifuged at 3000 × g at 37 °C for 30 min to pellet insoluble material and an aliquot of the supernatant was taken for analysis. After dilution of the sample, the concentration of dissolved compound was quantified by liquid chromatography coupled to triple quadrupole mass spectrometry (LC-MS/MS).

[1] = Metabolic stability in the presence of mouse liver microsomes; format: in vitro ADME; conditions: pH 7.4, read-out: intrinsic clearance, CLint
Description: Metabolic stability was determined in 0.5 mg/ml mouse liver microsomes at a compound concentration of 1 μM in 100 mM KPO4 buffer, pH 7.4, in a total incubation volume of 500 μl. The reaction was initiated by addition of 1 mM NADPH. At various incubation times, i.e., at 0, 5, 10, 20, 40, and 60 min, a sample was withdrawn from the incubation, and the reaction was terminated by addition of cold acetonitrile with warfarin as an internal standard. The amount of parent compound remaining was analyzed by LC-MS/MS[70].

Compound	Emax (GPR139) [%]	EC50 (GPR139) [nM]	Ca2+ signal (% of JNJ-63533054) (GPR139; log [Compound] M -5.0)	Ca2+ signal (% of JNJ-63533054) (GPR139; log [Compound] M -5.5)	Ca2+ signal (% of JNJ-63533054) (GPR139; log [Compound] M -6.0)	Ca2+ signal (% of JNJ-63533054) (GPR139; log [Compound] M -6.5)	Ca2+ signal (% of JNJ-63533054) (GPR139; log [Compound] M -7.0)	Ca2+ signal (% of JNJ-63533054) (GPR139; log [Compound] M -7.5)	Ca2+ signal (% of JNJ-63533054) (GPR139; log [Compound] M -8.0)	Ca2+ signal (% of JNJ-63533054) (GPR139; log [Compound] M -8.5)	Ca2+ signal (% of JNJ-63533054) (GPR139; log [Compound] M -9.0)	solubility kinetic (Kinetic solubility) [µM]	microsomal CLint at 1 μM [1] [µL/min/mg]	also measured
Cc1cscc1-c1nc(CC(=O)N[C@H](C)c2ccccc2)no1 [1.1(R)]	139 ± 24	398	181 % of JNJ-63533054 and 86 % of JNJ-63533054 and 180 % of JNJ-63533054	143 % of JNJ-63533054 and 96 % of JNJ-63533054 and 154 % of JNJ-63533054	90 % of JNJ-63533054 and 77 % of JNJ-63533054 and 95 % of JNJ-63533054	70 % of JNJ-63533054 and 52 % of JNJ-63533054 and 66 % of JNJ-63533054	15 % of JNJ-63533054 and 41 % of JNJ-63533054 and 28 % of JNJ-63533054	-6.33 % of JNJ-63533054 and 15 % of JNJ-63533054 and 7 % of JNJ-63533054	-9 % of JNJ-63533054 and 14 % of JNJ-63533054 and -7 % of JNJ-63533054	4 % of JNJ-63533054 and 2.33 % of JNJ-63533054 and -0.667 % of JNJ-63533054	8 % of JNJ-63533054 and 0.333 % of JNJ-63533054 and -15 % of JNJ-63533054			
C[C@@H](NC(=O)CNC(=O)c1cccc(Cl)c1)c1ccccc1 [JNJ(R), reference compound]	101 ± 18	1260	95 % of JNJ-63533054 and 63 % of JNJ-63533054 and 134 % of JNJ-63533054	58 % of JNJ-63533054 and 81 % of JNJ-63533054 (2×)	27 % of JNJ-63533054 and 52 % of JNJ-63533054 and 38 % of JNJ-63533054	14 % of JNJ-63533054 and 29 % of JNJ-63533054 and 4.33 % of JNJ-63533054	7 % of JNJ-63533054 and 9 % of JNJ-63533054 and -10 % of JNJ-63533054	5 % of JNJ-63533054 and 9 % of JNJ-63533054 and -13 % of JNJ-63533054	-3.33 % of JNJ-63533054 and 8 % of JNJ-63533054 and -14 % of JNJ-63533054	-0.667 % of JNJ-63533054 and 11 % of JNJ-63533054 and -10 % of JNJ-63533054	-2.67 % of JNJ-63533054 and 15 % of JNJ-63533054 and -6 % of JNJ-63533054			
CC(NC(=O)CNC(=O)c1cccc(Cl)c1)c1ccccc1 (stereo not drawn) [JNJ-63533054, reference compound]	133 ± 14	15.8												Ca2+ signal (% of JNJ-63533054) (GPR139; log [Compound] M -5.0, listed as JNJ (S)): 174 % of JNJ-63533054 and 107 % of JNJ-63533054 and 106 % of JNJ-63533054; Ca2+ signal (% of JNJ-63533054) (GPR139; log [Compound] M -5.5, listed as JNJ (S)): 140 % of JNJ-63533054 and 98 % of JNJ-63533054 and 168 % of JNJ-63533054; Ca2+ signal (% of JNJ-63533054) (GPR139; log [Compound] M -6.0, listed as JNJ (S)): 143 % of JNJ-63533054 and 109 % of JNJ-63533054 and 138 % of JNJ-63533054; Ca2+ signal (% of JNJ-63533054) (GPR139; log [Compound] M -6.5, listed as JNJ (S)): 110 % of JNJ-63533054 and 107 % of JNJ-63533054 and 98 % of JNJ-63533054; Ca2+ signal (% of JNJ-63533054) (GPR139; log [Compound] M -7.0, listed as JNJ (S)): 101 % of JNJ-63533054 and 88 % of JNJ-63533054 and 92 % of JNJ-63533054; Ca2+ signal (% of JNJ-63533054) (GPR139; log [Compound] M -7.5, listed as JNJ (S)): 90 % of JNJ-63533054 and 115 % of JNJ-63533054 and 68 % of JNJ-63533054; Ca2+ signal (% of JNJ-63533054) (GPR139; log [Compound] M -8.0, listed as JNJ (S)): 51 % of JNJ-63533054 and 82 % of JNJ-63533054 and 41 % of JNJ-63533054; Ca2+ signal (% of JNJ-63533054) (GPR139; log [Compound] M -8.5, listed as JNJ (S)): 37 % of JNJ-63533054 and 28 % of JNJ-63533054 and 33 % of JNJ-63533054; Ca2+ signal (% of JNJ-63533054) (GPR139; log [Compound] M -9.0, listed as JNJ (S)): 13 % of JNJ-63533054 and 3.67 % of JNJ-63533054 and 12 % of JNJ-63533054
Cc1nocc1-c1nc(CC(=O)NC(C)c2ccccc2)no1 (stereo not drawn) [Compound 1.5, CC(C1=CC=CC=C1)NC(CC2=NOC(C3=CON=C3C)=N2)=O]												24 (≈ 7.5 µg/mL)	46	
Cc1cscc1-c1nc(CC(=O)N[C@@H](C)c2ccccc2)no1 [1.1(S)]	146 ± 16	12.6	135 % of JNJ-63533054 and 150 % of JNJ-63533054	108 % of JNJ-63533054 and 167 % of JNJ-63533054	164 % of JNJ-63533054 and 119 % of JNJ-63533054 and 118 % of JNJ-63533054	143 % of JNJ-63533054 and 116 % of JNJ-63533054 and 108 % of JNJ-63533054	137 % of JNJ-63533054 and 106 % of JNJ-63533054 and 101 % of JNJ-63533054	103 % of JNJ-63533054 and 92 % of JNJ-63533054 and 129 % of JNJ-63533054	70 % of JNJ-63533054 and 74 % of JNJ-63533054 and 57 % of JNJ-63533054	28 % of JNJ-63533054 and 33 % of JNJ-63533054 and 37 % of JNJ-63533054	29 % of JNJ-63533054 and 19 % of JNJ-63533054 and 13 % of JNJ-63533054	13 (≈ 4.26 µg/mL)	1370	
